ChEMBL document CHEMBL2074506, “Effects of ursodeoxycholic and cholic acid feeding on hepatocellular transporter expression in mouse liver” (Gastroenterology, 2001)

Key:
Format in all cases: functional, organism-based
[1] = molecular target: T1, Solute carrier organic anion transporter family member 1A1 (Mus musculus, UniProt Q9QXZ6); experiment: TP_TRANSPORTER: Western (protein level: reduction to 45% of control) in vivo, liver of Him OF1 mouse
T1 sequence (Q9QXZ6 whole entry): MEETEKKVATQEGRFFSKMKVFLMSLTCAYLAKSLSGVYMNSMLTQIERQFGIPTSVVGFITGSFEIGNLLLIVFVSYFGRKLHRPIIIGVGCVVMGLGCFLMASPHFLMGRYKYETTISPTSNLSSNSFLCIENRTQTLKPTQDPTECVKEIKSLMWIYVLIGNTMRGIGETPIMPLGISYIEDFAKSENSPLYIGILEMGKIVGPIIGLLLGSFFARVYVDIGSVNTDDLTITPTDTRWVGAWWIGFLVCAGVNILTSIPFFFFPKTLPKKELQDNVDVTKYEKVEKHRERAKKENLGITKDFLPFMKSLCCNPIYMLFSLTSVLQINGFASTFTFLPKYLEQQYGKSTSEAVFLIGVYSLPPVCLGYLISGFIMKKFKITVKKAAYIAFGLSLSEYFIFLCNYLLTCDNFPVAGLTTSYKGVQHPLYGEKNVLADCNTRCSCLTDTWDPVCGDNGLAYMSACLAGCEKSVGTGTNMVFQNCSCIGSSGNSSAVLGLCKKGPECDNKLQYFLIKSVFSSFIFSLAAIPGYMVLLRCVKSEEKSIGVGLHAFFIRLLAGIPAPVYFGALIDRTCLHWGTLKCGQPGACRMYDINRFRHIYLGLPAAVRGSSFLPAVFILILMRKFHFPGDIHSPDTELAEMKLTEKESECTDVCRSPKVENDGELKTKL

[2] = molecular target: T2, ATP-binding cassette sub-family C member 2 (Mus musculus, UniProt Q8VI47); experiment: TP_TRANSPORTER: RT-PCR (mRNA level: 3 fold) in vivo, liver of Him OF1 mouse
T2 sequence (Q8VI47 whole entry): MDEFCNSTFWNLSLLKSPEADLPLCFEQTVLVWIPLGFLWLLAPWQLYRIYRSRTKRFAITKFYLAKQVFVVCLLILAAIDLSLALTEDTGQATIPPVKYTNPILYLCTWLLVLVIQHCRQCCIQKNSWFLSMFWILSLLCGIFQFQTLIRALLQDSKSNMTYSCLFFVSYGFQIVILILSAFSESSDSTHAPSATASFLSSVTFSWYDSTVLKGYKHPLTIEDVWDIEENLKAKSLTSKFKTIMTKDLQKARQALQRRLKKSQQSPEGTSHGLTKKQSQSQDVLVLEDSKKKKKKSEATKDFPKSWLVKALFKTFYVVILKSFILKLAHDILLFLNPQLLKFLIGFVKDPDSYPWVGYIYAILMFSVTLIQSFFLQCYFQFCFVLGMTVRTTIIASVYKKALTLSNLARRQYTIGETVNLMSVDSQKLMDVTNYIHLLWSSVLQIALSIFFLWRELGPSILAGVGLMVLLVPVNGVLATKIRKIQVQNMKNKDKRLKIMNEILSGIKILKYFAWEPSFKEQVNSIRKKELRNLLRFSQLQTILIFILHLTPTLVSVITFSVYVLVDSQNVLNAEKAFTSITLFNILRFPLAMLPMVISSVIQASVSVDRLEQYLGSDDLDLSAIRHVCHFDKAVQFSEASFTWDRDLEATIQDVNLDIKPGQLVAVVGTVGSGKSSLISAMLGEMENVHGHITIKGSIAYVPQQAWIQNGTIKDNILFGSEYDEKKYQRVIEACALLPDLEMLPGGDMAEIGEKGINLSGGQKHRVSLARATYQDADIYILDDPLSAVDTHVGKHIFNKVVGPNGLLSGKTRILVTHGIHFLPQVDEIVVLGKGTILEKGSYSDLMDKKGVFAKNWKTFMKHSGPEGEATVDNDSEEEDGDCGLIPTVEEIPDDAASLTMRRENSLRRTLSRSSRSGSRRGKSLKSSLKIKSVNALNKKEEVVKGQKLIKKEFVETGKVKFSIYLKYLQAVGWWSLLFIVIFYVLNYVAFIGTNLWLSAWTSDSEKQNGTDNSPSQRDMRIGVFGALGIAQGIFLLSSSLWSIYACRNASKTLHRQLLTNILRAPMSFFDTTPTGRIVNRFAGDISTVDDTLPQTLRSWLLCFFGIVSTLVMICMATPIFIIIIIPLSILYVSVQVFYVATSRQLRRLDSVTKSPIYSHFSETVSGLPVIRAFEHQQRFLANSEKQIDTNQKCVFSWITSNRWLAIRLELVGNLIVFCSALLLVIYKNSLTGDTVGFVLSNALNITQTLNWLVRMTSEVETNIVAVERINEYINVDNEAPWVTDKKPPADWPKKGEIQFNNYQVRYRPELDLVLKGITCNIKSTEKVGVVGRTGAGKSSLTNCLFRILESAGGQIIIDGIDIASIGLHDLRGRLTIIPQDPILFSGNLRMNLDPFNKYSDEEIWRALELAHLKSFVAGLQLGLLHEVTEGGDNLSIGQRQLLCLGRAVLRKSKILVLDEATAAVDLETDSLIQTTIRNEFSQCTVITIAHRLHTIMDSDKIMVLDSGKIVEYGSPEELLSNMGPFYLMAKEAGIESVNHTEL

[3] = molecular target: T1, Solute carrier organic anion transporter family member 1A1; experiment: TP_TRANSPORTER: RT-PCR (mRNA level: reduction to 72 % of control) in vivo, liver of Him OF1 mouse
[4] = molecular target: T3, ATP-dependent translocase ABCB1 (Mus musculus, UniProt P21447); experiment: TP_TRANSPORTER: Western (protein level: increase to 220%) in vivo, liver of Him OF1 mouse
T3 sequence (P21447 whole entry): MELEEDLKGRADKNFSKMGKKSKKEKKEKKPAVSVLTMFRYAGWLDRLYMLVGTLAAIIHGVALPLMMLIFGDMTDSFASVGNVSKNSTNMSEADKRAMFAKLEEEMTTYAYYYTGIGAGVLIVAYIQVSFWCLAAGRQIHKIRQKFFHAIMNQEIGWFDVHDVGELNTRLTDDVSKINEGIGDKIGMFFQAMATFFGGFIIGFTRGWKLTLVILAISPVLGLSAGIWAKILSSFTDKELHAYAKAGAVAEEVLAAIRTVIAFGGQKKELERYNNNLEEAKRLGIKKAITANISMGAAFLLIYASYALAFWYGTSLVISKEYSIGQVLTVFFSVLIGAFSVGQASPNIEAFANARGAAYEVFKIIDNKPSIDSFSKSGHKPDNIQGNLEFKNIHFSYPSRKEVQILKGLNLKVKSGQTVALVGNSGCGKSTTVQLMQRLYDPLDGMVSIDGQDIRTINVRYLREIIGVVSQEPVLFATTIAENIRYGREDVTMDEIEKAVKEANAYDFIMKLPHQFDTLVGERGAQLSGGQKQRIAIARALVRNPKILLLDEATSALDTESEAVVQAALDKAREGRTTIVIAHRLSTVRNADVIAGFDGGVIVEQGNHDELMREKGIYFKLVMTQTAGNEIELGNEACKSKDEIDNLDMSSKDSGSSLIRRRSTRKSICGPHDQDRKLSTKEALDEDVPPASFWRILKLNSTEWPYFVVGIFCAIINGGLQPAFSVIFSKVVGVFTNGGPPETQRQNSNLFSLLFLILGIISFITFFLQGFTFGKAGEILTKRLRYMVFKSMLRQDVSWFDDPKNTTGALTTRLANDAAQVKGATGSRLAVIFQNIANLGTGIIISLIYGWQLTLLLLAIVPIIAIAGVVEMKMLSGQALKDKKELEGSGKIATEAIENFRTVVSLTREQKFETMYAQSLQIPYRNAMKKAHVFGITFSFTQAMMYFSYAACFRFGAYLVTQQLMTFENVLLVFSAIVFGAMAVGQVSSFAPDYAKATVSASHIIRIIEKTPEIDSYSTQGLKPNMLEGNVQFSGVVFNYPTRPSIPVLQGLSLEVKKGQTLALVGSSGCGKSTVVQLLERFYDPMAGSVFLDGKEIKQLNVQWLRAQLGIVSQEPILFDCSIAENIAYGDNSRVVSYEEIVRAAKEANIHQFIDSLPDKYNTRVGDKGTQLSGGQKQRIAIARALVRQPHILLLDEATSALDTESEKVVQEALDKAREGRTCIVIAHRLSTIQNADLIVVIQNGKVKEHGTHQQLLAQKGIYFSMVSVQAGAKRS

[5] = molecular target: T3, ATP-dependent translocase ABCB1; experiment: TP_TRANSPORTER: RT-PCR (mRNA level: 2 fold) in vivo, liver of Him OF1 mouse
[6] = molecular target: T2, ATP-binding cassette sub-family C member 2; experiment: TP_TRANSPORTER: Western (protein level: increase to 350%) in vivo, liver of Him OF1 mouse

Measured: Activity

C[C@H](CCC(=O)O)[C@H]1CC[C@H]2[C@@H]3[C@@H](O)C[C@@H]4C[C@H](O)CC[C@]4(C)[C@H]3CC[C@]12C [URSODIOL]
inducer [Decrease]: [1] | [3]
inducer [+]: all other assays above
